From publication PMC4977052, “On the Utility of ToxCast™ and ToxPi as Methods for Identifying New Obesogens” (Environmental Health Perspectives, 2016)
Several values for one entry are separate records, joined by “and”; a condition that tells them apart may be missing. Identical values can stand only once. Like-named read-outs stand apart in the source and are kept apart here.

Tests used:
GAL4-mPPARγ [1] = biological target: T1, GAL4-mPPARγ (Mus musculus, UniProt P37238); test: GAL4-mPPARγ antagonism in competition with 50 nM rosiglitazone, transiently transfected COS7 cells; type: cell-based
T1 construct: expressed in transfected cells; host or cells: COS7
Protocol: (§1) pCMX-Gal4, pCMX-Gal4-mPPARγ, and pCMX-Gal4-hRXRα were previously described ([Grün et al. 2006]). Transient transfections were performed in COS7 cells as described ([Chamorro-García et al. 2012]). Briefly, COS7 cells were seeded at 15,000 cells per well in 96-well tissue culture plates in 10% calf bovine serum. The following day, cells were transfected in Opti-MEM at ~ 90% confluency. One microgram of CMX-GAL4 effector plasmid was co-transfected with 5 μg tk-(MH100)4-luciferase reporter and 5 μg of CMX-β-galactosidase transfection control plasmids in Opti-MEM® using Lipofectamine® 2000 reagent (Invitrogen™ Life Technologies, Carlsbad, CA, USA), following the manufacturer’s recommended protocol. All chemicals were solvated in dimethyl sulfoxide (DMSO). After overnight incubation, the medium was replaced with Dulbecco’s Modified Eagle Medium (DMEM; HyClone, Logan, UT, USA), 10% resin charcoal stripped fetal bovine serum (FBS) plus ligands at concentrations indicated in the figure legends for an additional 24 hr. DMSO concentration was maintained at 0.05% across all chemical treatments. Cells were lysed and assayed for luciferase and β-galactosidase activity as previously described ([Forman et al. 1995]). All transfections were performed in triplicate and reproduced in multiple experiments. Data are reported as fold induction or reduction over vehicle ([…]) controls ± SEM (standard error of the mean) using standard propagation of error ([Bevington and Robinson 2003]). […] The EC50, EC10, IC50, and IC10 values from NCGC and ToxCast™ are reported from gain AC50 and AC10 values in the ToxCast™ 2014 release ([Filer et al. 2014]).
(§2) Figure 1 ToxCast™ Chemical Activity on PPARγ. The ability of a graded dose series of ToxCast™ chemicals to (A) activate or (B) antagonize GAL4-mPPARγ was tested in transiently transfected COS7 cells. (A, B) Data points are averages of triplicate transfections (three biological replicates). […] Data are depicted as (A) fold induction or (B) reduction over vehicle (0.05% DMSO) controls ± SEM. (A) ToxCast™ chemicals were tested in 3-fold serial dilutions from 100 μM through 0.137 μM, with the final data point being 0.05% DMSO. Rosiglitazone serves as a positive control activator. (B) ToxCast™ chemicals were tested in 3-fold serial dilutions from 100 μM, in competition with 50 nM rosiglitazone (Rosi). […] (C) EC50, EC10, IC50, and IC10 values calculated from A and B are reported and compared to commercial assays (see Figure S1). Note: ATG, Attagene GAL-PPARγ activation assay; NCGC, GeneBLAzer® agonist (EC values) or antagonist (IC values) assays. Triphenyltin was previously published ([Kanayama et al. 2005]).

GAL4-mPPARγ [2] = biological target: T1, GAL4-mPPARγ; test: GAL4-mPPARγ activation, transient transfection luciferase reporter in COS7 cells; type: cell-based
Protocol: as §1, §2
Figure 4 ToxPi Chemical Activity on PPARγ and RXRα. The ability of a graded dose series of ToxPi chemicals to activate (A) GAL4-mPPARγ or (B) GAL4-hRXRα was tested in transiently transfected COS7 cells. (A, B) Data points are averages of triplicate transfections (three biological replicates). […] ToxPi chemicals were tested in 3-fold serial dilutions from 100 μM through 0.137 μM, with the final data point being 0.05% DMSO. Data are depicted as fold induction over vehicle (0.05% DMSO) controls ± SEM. (A) Rosiglitazone serves as a positive control activator for GAL4-mPPARγ. (B) LG100268 (2-[1-(3,5,5,8,8-Pentamethyl-5,6,7,8-tetrahydro-2-naphthyl)cyclopropyl]pyridine-5-carboxylic acid) serves as a positive control activator for GAL4-hRXRα. (C) EC50 and EC10 values calculated from A and B are reported and compared to other assays (see Figure S1). ATG, Attagene GAL-PPARγ or GAL-RXRα activation assay; NCGC, GeneBLAzer® GAL-PPARγ or GAL-RXRα activation assays. Triphenyltin was previously published ([Kanayama et al. 2005]).

PPARγ [3] = tested on: PPARγ; parameters: method as in Filer et al. 2014; settings: ref Filer et al. 2014, cited from earlier work; for AC50: PPARγ, NA = not active, read-out: NCGC Antag. AC50, 2014 Release
3T3-L1 preadipocytes = test: 3T3-L1 adipogenesis assay (lipid accumulation, adipogenic gene expression); type: cell-based; settings: 0.02-20 μM, 5 days after MDI induction
Protocol: 3T3-L1 cells (ATCC) were maintained in high-glucose DMEM supplemented with 10% fetal bovine serum, 2 mM L-glutamine, 50 IU/mL penicillin, and 50 μg/mL streptomycin. A total of 2 × 10^4 cells per well were seeded in 12-well plates. After 48 hr, cells were exposed to the adipogenic cocktail MDI (500 μM isobutylmethylxanthine, 0.25 nM dexamethasone and 5 μg/mL insulin), 8 μg/mL biotin and 8 μg/mL pantothenate for 2 days. Induction media was removed and cells were exposed to test chemicals during 5 days, replacing the media every 2 days. Rosiglitazone (ROSI) and tributyltin (TBT) were used as positive controls at 100 nM and 50 nM final concentrations, respectively. All ToxCast™ chemicals were tested at 0.02, 0.2, 2, and 20 μM, and DMSO concentration was maintained at 0.1% across all treatments. If the chemical was toxic at 20 μM, we repeated the experiment at 10 μM.
Cells were either fixed in 3.7% formaldehyde in phosphate-buffered saline (PBS) for 30 min at room temperature (RT) for lipid quantitation, or homogenized in TriPure (Roche, Mannheim, Germany) for gene expression analysis. For lipid quantitation, fixed cells were washed twice with PBS and maintained in PBS overnight at 4°C to release residual phenol red. Background of cells were measured prior to staining. Cells were stained with 1 μg/mL Nile red (CAS No. 7385-67-3) (to detect lipid accumulation) and 1 μg/mL Hoechst 33342 (ThermoFisher Scientific) (to detect nuclei as a surrogate for cell number) in PBS for 15 min in the dark at RT and washed twice with PBS. […] Background values of Hoechst and Nile red were subtracted from the RFUs after staining and the ratio RFUNile Red:RFUHoechst was calculated. Data are represented as mean ± SEM. Total RNA was isolated using TriPure (Roche) as recommended by the manufacturer. Reverse transcription and quantitative real-time RT-PCR (QPCR) were performed using Transcriptor RT and SYBR® Green Master Mix (Roche). cDNA was quantitated in a LightCycler® 480 System (Roche Diagnostics, Basel, Switzerland) using primer sets listed in Table S4. Each primer set amplified a single band as determined by gel electrophoresis and melting curve analysis. QPCR data were analyzed using the 2^ΔΔCt method ([Livak and Schmittgen 2001]) relative to ribosomal protein 36b4, normalizing to 0.1% DMSO vehicle. Error bars represent the SEM from four to six biological replicates calculated using standard propagation of error ([Bevington and Robinson 2003]).

PPARγ [4] = settings: PPARγ, NA = not active, cited from earlier work
PPARγ [5] = settings: PPARγ; NA = not active; ref Filer et al. 2014; read-out: NCGC Agonist AC50, 2014 Release; cited from earlier work
Human PPARγ = settings: PPARγ direct binding, NA = not active, cited from earlier work
[6] = ref Filer et al. 2014, read-out: ATG Agonist AC50, 2014 Release
[7] = ref Knudsen et al. 2011, read-out: ATG Agonist AC50, 2011 Release
[8] = ref Filer et al. 2014, read-out: NVS Agonist AC50, 2014 Release

T1 sequence (P37238 with tags, fused parts or gaps limits assumed): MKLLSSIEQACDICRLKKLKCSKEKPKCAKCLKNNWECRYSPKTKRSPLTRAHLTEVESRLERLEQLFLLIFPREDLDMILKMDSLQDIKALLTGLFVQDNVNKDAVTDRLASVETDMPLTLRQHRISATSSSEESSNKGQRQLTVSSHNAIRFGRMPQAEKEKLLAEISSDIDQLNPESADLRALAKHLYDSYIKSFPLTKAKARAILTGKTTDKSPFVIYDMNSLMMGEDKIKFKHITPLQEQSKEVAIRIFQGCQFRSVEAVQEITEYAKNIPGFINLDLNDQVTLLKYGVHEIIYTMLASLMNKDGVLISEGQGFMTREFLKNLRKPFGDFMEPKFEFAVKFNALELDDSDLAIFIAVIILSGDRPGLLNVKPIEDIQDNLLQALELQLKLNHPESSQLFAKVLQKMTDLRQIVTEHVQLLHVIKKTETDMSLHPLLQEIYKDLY

For `CCOCN(C(=O)CCl)c1c(C)cccc1CC` [Acetochlor], the AC50 (GAL4-mPPARγ [1]; Activation AC50 (PPARγ antagonists), Cos-7 transient transfection, competition with 50 nM rosiglitazone) was 46.7 µM, the “Antagonism of PPARγ” value (GAL4-mPPARγ [1]; COS7, competition against 50 nM rosiglitazone) was “weak antagonists” and the IC50 (GAL4-mPPARγ [1]; COS7, in competition with 50 nM rosiglitazone) was 46.7 µM. The “PPARγ antagonists: IC10, Fig 1B” value (GAL4-mPPARγ [1]; COS7, in competition with 50 nM rosiglitazone, computed from IC50) was 9.54 µM, the “Activation COS7 (result in words): PPARγ antagonist” value (GAL4-mPPARγ [1]; Cos-7 transient transfection, competition with 50 nM rosiglitazone) was “PPARγ antagonist” and the “Activation of GAL4-PPARγ (text)” value (GAL4-mPPARγ [2]; COS7, 100 μM through 0.137 μM) was “did not activate PPARγ”. The “PPARγ antagonists: IC10, NCGC” value (PPARγ [3]; AC10, ToxCast 2014 release) was 0.42 µM, the AC50 (PPARγ [3]) was 4.5 µM and the IC50 (PPARγ [3]; read-out: PPARγ antagonists: IC50, NCGC, gain AC50, ToxCast 2014 release) was 4.5 µM. The “Adipogenesis 3T3-L1 (result in words)” value (3T3-L1 preadipocytes) was “Negative”, the AC50 (PPARγ [4]; [6]) was 1.5 µM and the AC50 (PPARγ [4]; [7]) was 1.7 µM.
In the case of `CCCCOCN(C(=O)CCl)c1c(CC)cccc1CC` [Butachlor], the AC50 (PPARγ [3]) is given as 26.4 µM, the AC50 (PPARγ [4]; [6]) is given as 2 µM and the AC50 (PPARγ [4]; [7]) is given as 2.1 µM.
In the case of `N#Cc1c(Cl)c(Cl)c(Cl)c(C#N)c1Cl` [Chlorothalonil], the “Activation COS7 (result in words), ToxCast PPARγ list” value (shortened to “Activation COS7 … ToxCast PPARγ list”) (GAL4-mPPARγ [2]) is given as “Inactive”, the AC50 (PPARγ [3]) is given as 0.9 µM and the “ATG Agonist AC50, 2011 Release” value (PPARγ [4]; ref Knudsen et al. 2011) is given as “negative”. The AC50 (PPARγ [5]) was 82.8 µM, the AC50 (Human PPARγ; [8]) was 0.46 µM and the AC50 (Human PPARγ; ref Knudsen et al. 2011, read-out: NVS Agonist AC50, 2011 Release) was 0.6 µM.
In the case of `COCC(C)N(C(=O)CCl)c1c(C)csc1C` (stereo not shown) [Dimethenamid], the “Activation COS7 … ToxCast PPARγ list” value (GAL4-mPPARγ [2]) is listed as “Inactive”, the AC50 (PPARγ [3]) is listed as 21.4 µM and the AC50 (PPARγ [4]; [6]) is listed as 4.6 µM. For the same molecule, the AC50 (PPARγ [4]; [7]) was 5.6 µM.
For `COc1ccc(C(=CC(=O)N2CCOCC2)c2ccc(Cl)cc2)cc1OC` [Dimethomorph], the “Activation COS7 … ToxCast PPARγ list” value (GAL4-mPPARγ [2]) is given as “Inactive”, the AC50 (PPARγ [3]) is given as 32.3 µM and the AC50 (PPARγ [4]; [6]) is given as 9.4 µM and 10.1 µM. For the same molecule, the AC50 (PPARγ [4]; [7]) was 11 µM and the AC50 (Human PPARγ; [8]) was 9.6 µM.
In the case of `COC(=O)N(C(=O)N1CO[C@@]2(C(=O)OC)Cc3cc(Cl)ccc3C2=N1)c1ccc(OC(F)(F)F)cc1` [Indoxacarb], the “Activation COS7 … ToxCast PPARγ list” value (GAL4-mPPARγ [2]) is given as “Inactive”, the AC50 (PPARγ [3]) is given as 10.7 µM and the AC50 (PPARγ [4]; [6]) is given as 6.1 µM. For the same molecule, the AC50 (PPARγ [4]; [7]) was 8.5 µM and the AC50 (PPARγ [5]) was 44.1 µM.
For `N#CSCSC#N` [Methylene dithiocyanate], the “Activation COS7 (result in words), ToxPi chemicals” value (GAL4-mPPARγ [2]; Cos-7 transient transfection, PPARγ or RXRα activation assays (Table 2)) was “Inactive” and the “Adipogenesis 3T3-L1 (result in words)” value (3T3-L1 preadipocytes) was “Negative”.
